Results as given in publication PMC12016938, “A small molecule PKCε inhibitor reduces hyperalgesia induced by paclitaxel or opioid withdrawal” (JCI Insight, 2025).

Key:
[1] = tested on: paclitaxel-induced hyperalgesia; experiment: Paclitaxel-induced hyperalgesia, Randall-Selitto paw pressure test; settings: male rats; 1 mg/kg i.p. on days 1, 3, 5, 7
Description: We tested if CP612 reverses this hyperalgesia. Male rats received repeated injections of paclitaxel (1 mg/kg, i.p. on days 1, 3, 5, and 7). Twenty-four hours after the last dose of paclitaxel, rats were administered vehicle (2 mL/kg, i.p.) or CP612 (20 mg/kg, i.p.).
Mechanical nociceptive thresholds in rats were quantified by the Randall-Selitto paw pressure test using an Ugo Basile Analgesy-Meter. This device applies a linearly increasing mechanical force to the dorsum or plantar region of the rat hind paw. The mechanical nociceptive threshold is defined as the force in grams at which a rat withdraws its paw. The higher the force to elicit paw withdrawal, the higher the pain threshold (and the lower the sensitivity to pain). For studies testing nociceptive thresholds after the PKCε activator ψεRACK, or after the cancer chemotherapeutic drug paclitaxel, rats were placed into cylindrical acrylic restrainers for 40 minutes before starting each session. The restrainers had lateral ports to allow access to the hind paw, as previously described ([35]), and pain thresholds were measured by applying force to the dorsum of the hind paw. Prior to starting experiments, baseline mechanical nociceptive threshold was obtained as the mean of 2–3 readings on 1 hind paw in each rat.

[2] = tested on: self-administration (addictive potential); experiment: I.v. self-administration of CP612, between-session progressive ratio and demand curve; settings: rat, in vivo
Description: We tested the addictive potential of CP612 by examining the extent to which rats are willing to work to obtain CP612. Rats were initially trained to self-administer either saline, morphine (500 μg/kg/i.v. infusion), or 1 of 3 different doses of CP612 (75, 150, or 300 μg/kg/i.v. infusion) for 4 days at fixed ratio 1 (FR1, where 1 nose poke delivers 1 infusion).
During the second phase, the ratio to obtain an infusion increased geometrically every other day (FR1, FR3, FR6, FR12, FR24, FR48, and FR96).
Data (number of self-infusions) were also fitted in an economic-demand curve, which provides an estimate of the motivation to obtain drugs and their addictive potential ([20]). We measured elasticity (α), which is the relative change in consumption as a function of price (i.e., ratio of nose pokes required to obtain an infusion). Behavior is considered “inelastic” when consumption is insensitive to price and “elastic” when consumption is sensitive to price. We also measured Pmax, which is the price at which intake switches from inelastic to elastic. […] (Figure 8B).
Rats not immediately anesthetized were eliminated from the study.
Following this initial acquisition phase at FR1, the ratio to obtain the drug was increased geometrically every other day: FR3 (3 nose pokes are required to obtain 1 infusion of morphine), FR6, FR12, FR24, FR48, and FR96. This allows for analysis of drug consumption as a function of “price” using demand curves for behavioral economics, which can estimate the motivation to obtain drugs and their “addictive potential” ([20]). For this, data from each rat were fitted to the equation log Q = log Q0 + k (e ^–α(Q0 ^C) – 1), where Q represents consumption (number of self-infusions), and Q0 represents the level of consumption at the lowest price. C represents price for the drug (i.e., the ratio), and k is set to a constant accounting for the estimated range of consumption in logarithmic units (k = 4 in these studies). The symbol α is the relative change in consumption across changes in price (ratio). Behavior is considered “inelastic” when consumption is insensitive to price (i.e., the curve is flat, and consumption is maintained despite increases in price), and it switches to “elastic” when consumption is sensitive to price (i.e., when the curve is steep and consumption declines with increases in price). […] We also compared groups for their average intake in the consumption-price curves by measuring α (elasticity) and Pmax.

[3] = tested on: morphine self-administration; format: in vivo; settings: morphine 500 µg/kg/infusion alone, individual rats and group mean
Description: Because many patients with chronic pain take opioids for pain management ([8], [9]), we wanted to know if CP612 would change opioid intake. Therefore, we investigated if adding CP612 to the morphine solution during self-administration (i.e., a cocktail of morphine and CP612) modifies self-administration of morphine. We tested rats from the prior experiment for self-administration of morphine (500 μg/kg/i.v. infusion). Rats were first tested under a FR6 to reestablish responding.
Rats not immediately anesthetized were eliminated from the study. This excluded 2 rats from all experiments.

## CC(=O)O[C@H]1C(=O)[C@@]2(C)[C@H]([C@H](OC(=O)c3ccccc3)[C@]3(O)C[C@H](OC(=O)[C@H](O)[C@@H](NC(=O)c4ccccc4)c4ccccc4)C(C)=C1C3(C)C)[C@]1(OC(C)=O)CO[C@@H]1C[C@@H]2O [Paclitaxel]
[1]
  Effect of paclitaxel on nociceptive threshold: induced hyperalgesia

## CN1CC[C@]23c4c5ccc(O)c4O[C@H]2[C@@H](O)C=C[C@H]3[C@H]1C5 [Mor]
[2]
  AVG AH (FR3): 25.72
  AVG AH (FR6): 41.83
  AVG AH (FR12): 75.17
  AVG AH (FR24): 136.00
  AVG AH (FR48): 160.11
  AVG AH (FR96): 163.28
  AVG IH (FR1_D1 to D4): 7.83
  AVG IH (FR1_Last 2 FR1 days): 4.44
  AVG IH (FR1_Last 4 FR1 days): 6.31
  AVG IH (FR3): 9.28
  AVG IH (FR6): 8.33
  AVG IH (FR12): 9.39
  AVG IH (FR24): 10.72
  AVG IH (FR48): 14.00
  AVG IH (FR96): 15.22
  AVG Inf (FR3): 7.00
  AVG Inf (FR6): 6.22
  AVG Inf (FR12): 5.56
  AVG Inf (FR24): 5.00
  AVG Inf (FR48): 2.83
  AVG Inf (FR96): 1.17
  AVG Latency (FR1_D1 to D4): 2.60
  AVG Latency (FR1_Last 2 FR1 days): 0.81
  AVG Latency (FR1_Last 4 FR1 days): 0.93
  AVG Latency (FR3): 0.62
  AVG Latency (FR6): 1.19
  AVG Latency (FR12): 1.12
  AVG Latency (FR24): 1.19
  AVG Latency (FR48): 0.69
  AVG Latency (FR96): 0.92
  D1 AH (FR1): 13.44
  D1 AH (FR3): 24.67
  D1 AH (FR6): 38.44
  D1 AH (FR12): 75.11
  D1 AH (FR24): 135.67
  D1 AH (FR48): 167.78
  D1 AH (FR96): 169.67
  D1 IH (FR1): 11.56
  D1 IH (FR3): 9.11
  D1 IH (FR6): 7.11
  D1 IH (FR12): 9.22
  D1 IH (FR24): 10.56
  D1 IH (FR48): 13.22
  D1 IH (FR96): 17.11
  D1 Inf (FR1): 8.78
  D1 Inf (FR3): 6.56
  D1 Inf (FR6): 5.67
  D1 Inf (FR12): 5.67
  D1 Inf (FR24): 4.89
  D1 Inf (FR48): 2.89
  D1 Inf (FR96): 1.33
  D1 Latency (FR1): 7.37
  D1 Latency (FR3): 0.52
  D1 Latency (FR6): 0.51
  D1 Latency (FR12): 0.93
  D1 Latency (FR24): 0.99
  D1 Latency (FR48): 0.71
  D1 Latency (FR96): 1.02
  D2 AH (FR1): 11.44
  D2 AH (FR3): 26.78
  D2 AH (FR6): 45.22
  D2 AH (FR12): 75.22
  D2 AH (FR24): 136.33
  D2 AH (FR48): 152.44
  D2 AH (FR96): 156.89
  D2 IH (FR1): 6.89
  D2 IH (FR3): 9.44
  D2 IH (FR6): 9.56
  D2 IH (FR12): 9.56
  D2 IH (FR24): 10.89
  D2 IH (FR48): 14.78
  D2 IH (FR96): 13.33
  D2 Inf (FR1): 8.89
  D2 Inf (FR3): 7.44
  D2 Inf (FR6): 6.78
  D2 Inf (FR12): 5.44
  D2 Inf (FR24): 5.11
  D2 Inf (FR48): 2.78
  D2 Inf (FR96): 1.00
  D2 Latency (FR1): 0.74
  D2 Latency (FR3): 0.72
  D2 Latency (FR6): 1.88
  D2 Latency (FR12): 1.31
  D2 Latency (FR24): 1.39
  D2 Latency (FR48): 0.68
  D2 Latency (FR96): 0.82
  D3 AH (FR1): 14.11
  D3 IH (FR1): 8.44
  D3 Inf (FR1): 9.22
  D3 Latency (FR1): 1.40
  D4 AH (FR1): 14.00
  D4 IH (FR1): 4.44
  D4 Inf (FR1): 9.56
  D4 Latency (FR1): 0.90
  last AH (FR1): 14.00
  last IH (FR1): 4.44
  last Inf (FR1): 9.78
  last Latency (FR1): 0.71
  last-1 AH (FR1): 14.00
  last-1 IH (FR1): 4.44
  last-1 Inf (FR1): 9.56
  last-1 Latency (FR1): 0.90
  last-2 AH (FR1): 14.11
  last-2 IH (FR1): 8.44
  last-2 Inf (FR1): 9.22
  last-2 Latency (FR1): 1.40
  last-3 AH (FR1): 12.67
  last-3 IH (FR1): 7.89
  last-3 Inf (FR1): 8.89
  last-3 Latency (FR1): 0.69
[3]; Day 3, progressive ratio
  D3 Breakin Point (PR): 38.3
[3]; active hole, Day 1, fixed ratio
  D1 AH (FR6): 49.2
[3]; active hole, Day 2, fixed ratio
  D2 AH (FR6): 68.6
[3]; active hole, Day 3, progressive ratio
  D3 AH (PR): 186.1
[3]; inactive hole, Day 1, fixed ratio
  D1 IH (FR6): 4.7
[3]; inactive hole, Day 2, fixed ratio
  D2 IH (FR6): 5.2
[3]; inactive hole, Day 3, progressive ratio
  D3 IH (PR): 8.8
[3]; infusions, Day 1, fixed ratio
  D1 Inf (FR6): 6.7
[3]; infusions, Day 2, fixed ratio
  D2 Inf (FR6): 9.4
[3]; infusions, Day 3, progressive ratio
  D3 Inf (PR): 10.5
[3]; intake, Day 1, fixed ratio
  D1 mg/kg (FR6): 3.3 mg/kg
[3]; intake, Day 2, fixed ratio
  D2 mg/kg (FR6): 4.7 mg/kg
[3]; intake, Day 3, progressive ratio
  D3 mg/kg (PR): 5.2 mg/kg
[3]; time to first self-administered infusion, Day 1, fixed ratio
  D1 Latency (FR6): 3.3 min
[3]; time to first self-administered infusion, Day 2, fixed ratio
  D2 Latency (FR6): 2.8 min
